Test results published in patent US20030083366A1, “Combination chemotherapy” (priority 2001, published 2003).
Where “and” joins values, the source holds several entries; their conditions need not be identical. Equal values may be shown once. Read-outs that look alike come from different tables or passages of the source.

Tests used:
[1] = LC-12 squamous cell lung carcinoma implanted subcutaneously in BALB/C mice, chemotherapy study; format: in vivo, female BALB/C mice; conditions: female, mouse, in vivo, tumor-bearing BALB/C mice
Description: (§1) The synergistic combinations provided by this invention have been evaluated in standard chemotherapy studies using female BALB/C mice weighing 18 to 20 g. The test mice were obtained from Charles River Laboratories, Wilmington, Mass. On Day 0 of the test, each mouse was surgically implanted (subcutaneously) with a fragment of LC-12 squamous cell lung carcinoma tumor weighing approximately 30 to 60 mg. The tumor fragments were implanted using a 12 gauge trocar. The mice were weighed weekly, and tumor size (width and length in mm) were measured two times each week with standard calipers. Tumor mass for each animal was calculated according to the formula: [formula]
(§2) where “a” is width of the tumor in mm, and “b” is the length in mm. Evaluation of anticancer activity was established by the formula T-C, where “T” and “C” are the median time (in days) required for the treated and control (respectively) tumors to reach a predetermined size of about 750 mg (the “evaluation size”). Tumors generally reached size of about 150 to about 200 mg before drug dosing was initiated. Antitumor activity was assessed according to four parameters: (1) partial tumor response (PR); (2) complete tumor response (CR); (3) tumor-free survival (TF); and (4) tumor growth delay (TL). Tumor growth delay is expressed as a T-C value, where T is the median days required for the treatment group tumors to reach a predetermined size (e.g., 750 mg), and C is the median days for the control group tumors to reach this size. From the tumor growth delay value, the net log10 tumor cell kill is calculated as follows:
(§3) Net log10 tumor cell kill=[(T−C)−Rx]/3.32×Td
(§4) where Td is the days for the tumor mass to double, and Rx is the total days of treatment. Td is estimated from the best fit straight line from a log-linear plot of the control-group tumors in exponential growth (200 to 800 mg range). The conversion of the T-C values to log10 cell kill is possible because the Td for tumors regrowing after treatment is approximately the same as that for untreated control mice. The net log10 kill value normalizes the efficacy data for tumor growth during treatment regimens of varied duration and provides an estimate of whether an actual regression of the tumor occurred. Positive values indicate that an actual reduction of tumor burden occurred. Negative values indicate the tumor actually grew (although possibly more slowly) during treatment. Tumor-free survivors were excluded from these calculations.
(§5) Acetyldinaline was suspended in 0.5% aqueous methyl cellulose and administered orally at various dosages in 0.5 mL volumes. Docetaxel was dissolved in 5% ethanol, 5% Tween 80, 90% aqueous saline and administered intravenously at various dosage levels in 0.2 mL injections.
(§6) The animals were divided into groups of 10 animals each. One group served as controls and received vehicle alone, with no drug treatments. Two groups received oral doses of acetyldinaline alone at a specified level (as shown in Table 3) of active drug (30 mg/kg and 60 mg/kg). […] Three groups received docetaxel alone at doses of 3.5, 5.6, and 9.0 mg/kg. Two groups received acetyldinaline at the recited doses, in combination with 3.5 mg/kg of docetaxel, and another two groups received acetyldinaline at the recited doses in combination with docetaxel at […], and the final two groups received acetyldinaline at the recited doses, in combination until 9.0 mg/kg of docetaxel.

[2] = test system: LC-12 squamous cell lung carcinoma tumor; experiment: as above; format: in vivo, female BALB/C mice; conditions: for antitumor effect of the agents individually: single agent
Description: as §1, §2, §3, §4, §5, §6

[3] = Phase 1 dose-escalation study of CI-994 in solid tumor patients; format: in vivo
Description: In one such study, patients were treated using a dose-escalation scheme that increased both the daily dose and the duration of treatment. The majority of patients had received extensive prior chemotherapy. The maximum-tolerated dose (MTD) was 15 mg/m^2/day when the duration of treatment was 14 consecutive days. To allow more prolonged treatment, lower doses were studied. Using a schedule of 8 weeks of continuous daily therapy, followed by a 2-week ‘drug holiday’, the MTD was 8 mg/m^2/day. […] Blood counts tended to stabilize even with continued treatment and to recover quickly when treatment was stopped.

[4] = Phase 1 study, once daily high-dose 5-day schedule, relapsed acute leukemia or other hematologic malignancy; format: in vivo
Description: An additional Phase 1 study was conducted in patients with relapsed acute leukemia or other hematologic malignancy using a once daily high-dose 5-day dosing schedule. […] Hematologic toxicities cannot be assessed in this patient population. Two patients with AML developed tumor lysis syndrome, resulting in one death. Transient decreases in peripheral white blood cell counts were noted.

[5] = Pharmacokinetics and food effect in the solid tumor Phase 1 study; format: in vivo, patients; conditions: oral, after a fasting period
[6] = Route of elimination of radiolabeled drug, monkeys; format: in vivo; conditions: within 24 hours
Description: (§7) Mass balance/route of elimination studies have not been conducted in humans. Animal studies indicate that the principal route of elimination is via renal excretion, with 80% and 62% of radiolabeled drug appearing in the urine of monkeys and rats, respectively, within 24 hours.

[7] = Route of elimination of radiolabeled drug, rats; format: in vivo; conditions: within 24 hours
Description: as §7

[8] = CI-994 30.0 mg/kg/injection oral, Days 11-13, 15-17, 19-21, alone
[9] = CI-994 60 mg/kg/day (MTD), alone
[10] = CI-994 60.0 mg/kg/injection oral, Days 11-13, 15-17, 19-21, alone
[11] = Docetaxel 3.5 mg/kg/injection iv, Days 11, 15, 19, alone
[12] = Docetaxel 5.6 mg/kg/injection iv, Days 11, 15, 19, alone
[13] = Docetaxel 9.0 mg/kg/injection iv, Days 11, 15, 19, alone

CC(=O)Nc1ccc(C(=O)Nc2ccccc2N)cc1 [CI-994, 4-acetylamino-N-(2′-aminophenyl)-benzamide]
MTD ([1]; oral): 60 mg/kg/day
partial tumor response ([2]; CI-994 30 mg/kg/day (50% its MTD), alone): 20%
% Weight Change [2, 8]: −5.5%
Net Log10 Kill [2, 8]: −0.5 log10
Non-specific Deaths [2, 8]: 0/10
PR (partial response) [2, 8]: 2/10
T − C (tumor growth delay to 750 mg) [2, 8]: 4.6 days
Tumor Free (Day 105) [2, 8]: 0/10
CR (complete response) ([2]; CI-994 30.0 mg/kg/injection oral, Days 11-13, 15-17, 19-21, alone, 30 mg/kg): no complete tumor responses and 0/10
complete tumor response rate [2, 9]: 40%
partial tumor response [2, 9]: 10%
mice tumor free when the study ended ([2]; CI-994 60 mg/kg/day (MTD), alone, 105 days after the last CI-994 treatment): 30%
% Weight Change [2, 10]: −10.5%
CR (complete response) [2, 10]: 4/10
Net Log10 Kill [2, 10]: −0.3 log10
Non-specific Deaths [2, 10]: 0/10
PR (partial response) [2, 10]: 1/10
T − C (tumor growth delay to 750 mg) [2, 10]: 4.9 days
Tumor Free (Day 105) [2, 10]: 3/10
antitumor effect of the agents individually [2]: only modest antitumor efforts
MTD ([3]; 8 weeks of continuous daily therapy followed by a 2-week drug holiday): 8 mg/m^2/day
Responses ([3]; Phase 1 patients): one partial response in a heavily pretreated patient with NSCLC and a minor response in one patient each with renal cell cancer and NSCLC
Other toxicities ([3]; human, in vivo): nausea, vomiting, diarrhea, anorexia, fatigue, mucositis, headache, dehydration, and increases in liver and renal function test values
cumulative toxicity ([3]; human, in vivo): no evidence of cumulative toxicity
dose-limiting toxicity ([3]; human, in vivo): thrombocytopenia or neutropenia
time of occurrence of dose-limiting toxicity after start of therapy ([3]; human, in vivo): ≤ 1 month
maximum-tolerated dose (MTD) ([3]; treatment for 14 consecutive days, patients mostly with extensive prior chemotherapy): 15 mg/m^2/day
Other adverse events ([4]; in vivo): nausea, vomiting, hypotension resulting from dehydration, hypocalcemia, headache
dose-limiting toxicity ([4]; in vivo): acute CNS toxicity manifested as sedation and somnolence
MTD ([4]; once daily high-dose 5-day dosing schedule): 135 mg/m^2/day
half-life ([5]; human, plasma, preliminary results, read-out: terminal elimination half-life (converted)): ~15 h
maximum plasma CI-994 concentrations with increasing dose levels [5]: less than dose-proportional
terminal elimination half-life and apparent clearance rate versus dose [5]: independent of the dose administered
radiolabeled drug appearing in the urine [6]: 80%
radiolabeled drug appearing in the urine [7]: 62%
Clinical benefit (8 mg/m^2 given orally daily): reported in patients with renal cell cancer
Objective responses (8 mg/m^2 given orally daily): seen in patients with nonsmall cell lung cancer
dose-limiting toxicity (in vivo, po): Thrombocytopenia

CC(=O)O[C@@]12CO[C@@H]1C[C@H](O)[C@@]1(C)C(=O)[C@H](O)C3=C(C)[C@@H](OC(=O)[C@H](O)[C@@H](NC(=O)OC(C)(C)C)c4ccccc4)C[C@@](O)([C@@H](OC(=O)c4ccccc4)[C@H]21)C3(C)C [Docetaxel]
MTD ([1]; intravenous, read-out: MTD of docetaxel): 9 mg/kg/day
% Weight Change [2, 11]: −7.3%
CR (complete response) [2, 11]: 0/10
Non-specific Deaths [2, 11]: 0/10
PR (partial response) [2, 11]: 0/10
T − C (tumor growth delay to 750 mg) [2, 11]: -1.7 days
Tumor Free (Day 105) [2, 11]: 0/10
% Weight Change [2, 12]: −11.7%
CR (complete response) [2, 12]: 0/10
Non-specific Deaths [2, 12]: 1/10
PR (partial response) [2, 12]: 1/10
T − C (tumor growth delay to 750 mg) [2, 12]: -0.5 days
Tumor Free (Day 105) [2, 12]: 0/10
% Weight Change [2, 13]: −16.7%
CR (complete response) [2, 13]: 0/10
Net Log10 Kill [2, 13]: −0.2 log10
Non-specific Deaths [2, 13]: 1/10
PR (partial response) [2, 13]: 3/10
T − C (tumor growth delay to 750 mg) [2, 13]: 3.3 days
Tumor Free (Day 105) [2, 13]: 0/10
CR (complete response) ([2]; Docetaxel 9.0 mg/kg/injection iv, Days 11, 15, 19, alone, listed as docetaxel): no complete tumor responses
partial tumor responses ([2]; docetaxel 9 mg/kg/day (MTD), alone): 30%
antitumor effect of the agents individually [2]: only modest antitumor efforts
